The test system of test [1] is poliovirus (polio vaccination strain type I, strain LSc-2ab).
For the next test, the system named is poliovirus. The conditions noted are these: cited from earlier work.

Each structure is given as a SMILES string. Values joined by “and” are separate entries in the source; they are usually repeats but may differ in a detail not shown here. Equal entries are not always repeated.

The source of these data is patent publication US8697140B2, “Virucidal disinfectant” (priority 2005, dated 2014).

As to `C=O` [formaldehyde solution, formaldehyde], the “Reduction of poliovirus titer” value in test [1] was 1.25 log10 steps and 2.13 log10 steps.
Turning to `O=P(O)(O)O` [phosphoric acid], the Effectiveness against poliovirus result in the test on poliovirus was “ineffective”.
